Measurements as given in article PMC12283027, “Development of Potent and Selective RIPK1 Degraders Targeting Its Nonenzymatic Function for Cancer Treatment” (Journal of Medicinal Chemistry, 2025).

biological target: T1, Receptor-interacting protein kinase 1 (RIPK1) (Homo sapiens, UniProt Q13546); test: cell-based; set-up: HiBiT luminescence of CRISPR-tagged endogenous RIPK1 (C-terminal HiBiT) after PROTAC treatment; degradation DC50 and Dmax; details: HEK293T-RIPK1-HiBiT cells; read-out: Dmax (HEK293T-RIPK1-HiBiT cell line)
T1 construct: with VHL
Experimental: Screening of RIPK1 Degraders Using HEK-293T-RIPK1-HiBiT cells  3 Primary screening RIPK1 degraders using HEK293T-RIPK1-HiBiT cell line. Cells were seeded in 96-well plates and treated with test compounds for 20 h. After treatment, Bioluminescence signal reflecting RIPK1 protein level was generated by adding Nano-Glo HiBiT detect reagent. A) Bioluminescence signal was visualized using Bio-Rad ChemiDoc MP Imaging system. The grayscale intensity is positively correlated with protein abundance. B) Relative luminescence Units (RLUs) in each well was measured using CLARIOstar plate reader. DC50 values were calculated by nonlinear regression analysis in GraphPad Prism software. DC50 = dose that reduces RIPK1 protein by 50%. D max = maximum reduction of RIPK1 protein achieved by the compound. Guide RNA oligos for RIPK1 (foward: CACCGA-GCCCAT-CCAGGG-TTAGTTC. reverse: AAACGA-ACTAAC-CCTGGA-TGGGCTC) were cloned into Cas9 expression plasmid (pSpCas9–2A-GFP purchased from Addgene), and cotransfected with donor DNA oligo using FuGENE HD Transfection Reagent (Promega). GFP positive cells were FACS sorted and single clones were screened for HiBiT signal by Nano Glo HiBiT Lytic Detection System (Promega).

T1 sequence (Q13546 whole entry): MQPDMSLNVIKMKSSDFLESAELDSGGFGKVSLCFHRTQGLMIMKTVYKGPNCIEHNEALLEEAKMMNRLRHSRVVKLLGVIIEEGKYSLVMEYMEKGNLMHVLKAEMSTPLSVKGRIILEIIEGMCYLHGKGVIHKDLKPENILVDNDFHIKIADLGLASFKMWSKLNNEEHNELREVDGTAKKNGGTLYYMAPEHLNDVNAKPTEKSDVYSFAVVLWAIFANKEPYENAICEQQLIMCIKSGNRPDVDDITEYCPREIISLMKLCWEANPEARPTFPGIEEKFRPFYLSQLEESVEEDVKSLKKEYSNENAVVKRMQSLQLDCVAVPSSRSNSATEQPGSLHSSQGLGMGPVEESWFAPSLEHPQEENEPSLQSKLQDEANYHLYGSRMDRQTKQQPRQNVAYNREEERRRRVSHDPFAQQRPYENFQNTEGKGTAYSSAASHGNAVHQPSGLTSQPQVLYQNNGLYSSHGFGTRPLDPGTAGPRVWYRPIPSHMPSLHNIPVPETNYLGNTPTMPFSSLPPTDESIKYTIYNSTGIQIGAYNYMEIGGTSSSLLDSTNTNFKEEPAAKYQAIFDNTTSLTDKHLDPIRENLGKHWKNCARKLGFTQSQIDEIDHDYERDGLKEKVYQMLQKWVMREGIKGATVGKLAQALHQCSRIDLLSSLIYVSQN
T1 sequence (P40337 whole entry partner): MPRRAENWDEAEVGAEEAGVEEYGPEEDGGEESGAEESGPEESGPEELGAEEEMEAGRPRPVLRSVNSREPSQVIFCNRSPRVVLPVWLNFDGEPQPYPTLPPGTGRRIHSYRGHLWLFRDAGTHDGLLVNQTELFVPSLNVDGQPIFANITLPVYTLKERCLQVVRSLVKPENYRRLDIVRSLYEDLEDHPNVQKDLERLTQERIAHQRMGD

Dmax [%]	SMILES
95	Cc1ncsc1-c1ccc([C@H](C)NC(=O)[C@@H]2C[C@@H](O)CN2C(=O)[C@@H](NC(=O)COc2ccc(CCNC(=O)Cn3cc(-c4cnc(N)c5c(-c6ccc7c(c6)CCN7C(=O)Cc6ccccc6)csc45)cn3)cc2)C(C)(C)C)cc1 [204-2]
96	Cc1ncsc1-c1ccc([C@H](C)NC(=O)[C@@H]2C[C@@H](O)CN2C(=O)[C@@H](NC(=O)CCOc2ccc(CCNC(=O)Cn3cc(-c4cnc(N)c5c(-c6ccc7c(c6)CCN7C(=O)Cc6ccccc6)csc45)cn3)cc2)C(C)(C)C)cc1 [204-4]
81	Cc1ncsc1-c1ccc([C@H](C)NC(=O)[C@@H]2C[C@@H](O)CN2C(=O)[C@@H](NC(=O)CCCOc2ccc(CCNC(=O)Cn3cc(-c4cnc(N)c5c(-c6ccc7c(c6)CCN7C(=O)Cc6ccccc6)csc45)cn3)cc2)C(C)(C)C)cc1 [204-6]
78	Cc1ncsc1-c1ccc([C@H](C)NC(=O)[C@@H]2C[C@@H](O)CN2C(=O)[C@@H](NC(=O)COCCOCCNC(=O)Cn2cc(-c3cnc(N)c4c(-c5ccc6c(c5)CCN6C(=O)Cc5ccccc5)csc34)cn2)C(C)(C)C)cc1 [208-2]
75	Cc1ncsc1-c1ccc([C@H](C)NC(=O)[C@@H]2C[C@@H](O)CN2C(=O)[C@@H](NC(=O)COCCOCCOCCNC(=O)Cn2cc(-c3cnc(N)c4c(-c5ccc6c(c5)CCN6C(=O)Cc5ccccc5)csc34)cn2)C(C)(C)C)cc1 [208-4]
55	Cc1ncsc1-c1ccc([C@H](C)NC(=O)[C@@H]2C[C@@H](O)CN2C(=O)[C@@H](NC(=O)COCCOCCOCCOCCNC(=O)Cn2cc(-c3cnc(N)c4c(-c5ccc6c(c5)CCN6C(=O)Cc5ccccc5)csc34)cn2)C(C)(C)C)cc1 [208-6]
71	Cc1ncsc1-c1ccc([C@H](C)NC(=O)[C@@H]2C[C@@H](O)CN2C(=O)[C@@H](NC(=O)COc2ccc(CNC(=O)Cn3cc(-c4cnc(N)c5c(-c6ccc7c(c6)CCN7C(=O)Cc6ccccc6)csc45)cn3)cc2)C(C)(C)C)cc1 [214-6]
81	Cc1ncsc1-c1ccc([C@H](C)NC(=O)[C@@H]2C[C@@H](O)CN2C(=O)[C@@H](NC(=O)CCCOc2ccc(CNC(=O)Cn3cc(-c4cnc(N)c5c(-c6ccc7c(c6)CCN7C(=O)Cc6ccccc6)csc45)cn3)cc2)C(C)(C)C)cc1 [214-7]
90	Cc1ncsc1-c1ccc([C@H](C)NC(=O)[C@@H]2C[C@@H](O)CN2C(=O)[C@@H](NC(=O)CCCCOc2ccc(CNC(=O)Cn3cc(-c4cnc(N)c5c(-c6ccc7c(c6)CCN7C(=O)Cc6ccccc6)csc45)cn3)cc2)C(C)(C)C)cc1 [214-8]
87	Cc1ncsc1-c1ccc([C@H](C)NC(=O)[C@@H]2C[C@@H](O)CN2C(=O)[C@@H](NC(=O)CCCCCOc2ccc(CNC(=O)Cn3cc(-c4cnc(N)c5c(-c6ccc7c(c6)CCN7C(=O)Cc6ccccc6)csc45)cn3)cc2)C(C)(C)C)cc1 [214-9]
92	Cc1ncsc1-c1ccc([C@H](C)NC(=O)[C@@H]2C[C@@H](O)CN2C(=O)[C@@H](NC(=O)CCCCCCOc2ccc(CNC(=O)Cn3cc(-c4cnc(N)c5c(-c6ccc7c(c6)CCN7C(=O)Cc6ccccc6)csc45)cn3)cc2)C(C)(C)C)cc1 [214-10]
1	Cc1ncsc1-c1ccc([C@H](C)NC(=O)[C@@H]2C[C@@H](O)CN2C(=O)[C@@H](NC(=O)CNC(=O)Cn2cc(-c3cnc(N)c4c(-c5ccc6c(c5)CCN6C(=O)Cc5ccccc5)csc34)cn2)C(C)(C)C)cc1 [216-9]
25	Cc1ncsc1-c1ccc([C@H](C)NC(=O)[C@@H]2C[C@@H](O)CN2C(=O)[C@@H](NC(=O)CCNC(=O)Cn2cc(-c3cnc(N)c4c(-c5ccc6c(c5)CCN6C(=O)Cc5ccccc5)csc34)cn2)C(C)(C)C)cc1 [216-10]
62	Cc1ncsc1-c1ccc([C@H](C)NC(=O)[C@@H]2C[C@@H](O)CN2C(=O)[C@@H](NC(=O)CCCNC(=O)Cn2cc(-c3cnc(N)c4c(-c5ccc6c(c5)CCN6C(=O)Cc5ccccc5)csc34)cn2)C(C)(C)C)cc1 [216-11]
51	Cc1ncsc1-c1ccc([C@H](C)NC(=O)[C@@H]2C[C@@H](O)CN2C(=O)[C@@H](NC(=O)CCCCNC(=O)Cn2cc(-c3cnc(N)c4c(-c5ccc6c(c5)CCN6C(=O)Cc5ccccc5)csc34)cn2)C(C)(C)C)cc1 [216-12]
93	Cc1ncsc1-c1ccc([C@H](C)NC(=O)[C@@H]2C[C@@H](O)CN2C(=O)[C@@H](NC(=O)CCCCCNC(=O)Cn2cc(-c3cnc(N)c4c(-c5ccc6c(c5)CCN6C(=O)Cc5ccccc5)csc34)cn2)C(C)(C)C)cc1 [216-13]
88	Cc1ncsc1-c1ccc([C@H](C)NC(=O)[C@@H]2C[C@@H](O)CN2C(=O)[C@@H](NC(=O)CCCCCCNC(=O)Cn2cc(-c3cnc(N)c4c(-c5ccc6c(c5)CCN6C(=O)Cc5ccccc5)csc34)cn2)C(C)(C)C)cc1 [216-14]
94	Cc1ncsc1-c1ccc([C@H](C)NC(=O)[C@@H]2C[C@@H](O)CN2C(=O)[C@@H](NC(=O)CCCCCCCNC(=O)Cn2cc(-c3cnc(N)c4c(-c5ccc6c(c5)CCN6C(=O)Cc5ccccc5)csc34)cn2)C(C)(C)C)cc1 [216-15]
93	Cc1ncsc1-c1ccc([C@H](C)NC(=O)[C@@H]2C[C@@H](O)CN2C(=O)[C@@H](NC(=O)CCCCCCCCNC(=O)Cn2cc(-c3cnc(N)c4c(-c5ccc6c(c5)CCN6C(=O)Cc5ccccc5)csc34)cn2)C(C)(C)C)cc1 [216-16]
96	Cc1ncsc1-c1ccc([C@H](C)NC(=O)[C@@H]2C[C@@H](O)CN2C(=O)[C@@H](NC(=O)COc2ccc(NC(=O)Cn3cc(-c4cnc(N)c5c(-c6ccc7c(c6)CCN7C(=O)Cc6ccccc6)csc45)cn3)cc2)C(C)(C)C)cc1 [217-10]
95	Cc1ncsc1-c1ccc([C@H](C)NC(=O)[C@@H]2C[C@@H](O)CN2C(=O)[C@@H](NC(=O)CCCOc2ccc(NC(=O)Cn3cc(-c4cnc(N)c5c(-c6ccc7c(c6)CCN7C(=O)Cc6ccccc6)csc45)cn3)cc2)C(C)(C)C)cc1 [217-11]
93	Cc1ncsc1-c1ccc([C@H](C)NC(=O)[C@@H]2C[C@@H](O)CN2C(=O)[C@@H](NC(=O)CCCCOc2ccc(NC(=O)Cn3cc(-c4cnc(N)c5c(-c6ccc7c(c6)CCN7C(=O)Cc6ccccc6)csc45)cn3)cc2)C(C)(C)C)cc1 [217-12]
92	Cc1ncsc1-c1ccc([C@H](C)NC(=O)[C@@H]2C[C@@H](O)CN2C(=O)[C@@H](NC(=O)CCCCCOc2ccc(NC(=O)Cn3cc(-c4cnc(N)c5c(-c6ccc7c(c6)CCN7C(=O)Cc6ccccc6)csc45)cn3)cc2)C(C)(C)C)cc1 [217-13]
93	Cc1ncsc1-c1ccc([C@H](C)NC(=O)[C@@H]2C[C@@H](O)CN2C(=O)[C@@H](NC(=O)COCCOc2ccc(CNC(=O)Cn3cc(-c4cnc(N)c5c(-c6ccc7c(c6)CCN7C(=O)Cc6ccccc6)csc45)cn3)cc2)C(C)(C)C)cc1 [224-5]
93	Cc1ncsc1-c1ccc([C@H](C)NC(=O)[C@@H]2C[C@@H](O)CN2C(=O)[C@@H](NC(=O)COCCOc2ccc(CCNC(=O)Cn3cc(-c4cnc(N)c5c(-c6ccc7c(c6)CCN7C(=O)Cc6ccccc6)csc45)cn3)cc2)C(C)(C)C)cc1 [224-6]
93	Cc1ncsc1-c1ccc([C@H](C)NC(=O)[C@@H]2C[C@@H](O)CN2C(=O)[C@@H](NC(=O)COCCOCCOc2ccc(CNC(=O)Cn3cc(-c4cnc(N)c5c(-c6ccc7c(c6)CCN7C(=O)Cc6ccccc6)csc45)cn3)cc2)C(C)(C)C)cc1 [224-7]
92	Cc1ncsc1-c1ccc([C@H](C)NC(=O)[C@@H]2C[C@@H](O)CN2C(=O)[C@@H](NC(=O)COCCOCCOc2ccc(CCNC(=O)Cn3cc(-c4cnc(N)c5c(-c6ccc7c(c6)CCN7C(=O)Cc6ccccc6)csc45)cn3)cc2)C(C)(C)C)cc1 [224-8]
